Measurements published in publication PMC10892984, “Novel Antineoplastic Inducers of Mitochondrial Apoptosis in Human Cancer Cells” (Molecules, 2024).

Assays:
HOP-92 = type: cell-based; details: HOP-92, non-small-cell lung cancer, mutant p53, 48 h
BT-549 = details: for TGI: BT-549, breast cancer, mutant p53, 48 h; for GI50 / CC50: Homo sapiens, BT-549, 48 h; for CC50: read-out: LC50
EKVX = details: non-small-cell lung cancer, mutant p53, 48 h
SNB-75 = details: for TGI: SNB-75, CNS cancer (brain tumor), mutant p53, 48 h; for GI50 / CC50: Homo sapiens, SNB-75, 48 h; for CC50: read-out: LC50
[1] = Cytotoxicity (CellTiter 96 AQueous One, MTS); type: cell-based, human; details: human; CCRF−CEM cells
Experimental: (§1) The cytotoxicity and human immunodeficiency virus type 1 (HIV-1) strain LAI replication assays were performed in freshly explanted primary human peripheral blood mononuclear cells (PBM cells) according to published procedures. The assays were conducted at least in triplicate and treated statistically (if possible). HIV-1LAI (= HIV-1BRU = LAV-1) was assayed in primary human peripheral blood lymphocyte (PBL) cells in the presence of a drug being evaluated. The parameter for antiviral activity was a reduction in reverse transcriptase (RT) activity in the cell supernatant after Triton X–100-mediated lysis of released virions, as measured using [5α-^3H]dTTP (5α-tritiated thymidine 5′-triphosphate) incorporation into poly(rA)•poly(dT) directed by the primed RNA template poly(rA)•oligo(dT). […] The detailed assay methodology was reported by Schinazi et al. as based on an older assay system of Spira et al.. The experiments were conducted in triplicate and treated statistically using regression curve analysis (r^2 coefficient of determination). The RT inhibitor AZT (zidovudine, 3′-azido-3′-deoxythymidine; RETROVIR™) served as a positive control. Cytotoxicity on PBL and the other cells (CCRF−CEM, Vero) exerted by the test compounds was determined as described by Stuyver et al. by application of the CellTiter 96® AQueous One Solution Cell Proliferation Assay (Promega Corp., Madison, WI, USA). Briefly, the phenazine ethosulfate (PES)-coupled reduction of the tetrazolium salt 3-(4,5-dimethylthiazol-2-yl)-5-(3-carboxymethoxyphenyl)-2-(4-sulfophenyl)-2H-tetrazolium (MTS) to a purple, water-soluble formazan by living, undamaged cells was measured.

CCRF−CEM cells = assay: Cytotoxicity (CellTiter 96 AQueous One, MTS); type: cell-based, human; details: Homo sapiens, 1.0 µM, read-out: CCRF–CEM growth inhibition at fixed 1.0 µM concentration
Experimental: as §1

K-562 = details: for GI50 / CC50: Homo sapiens, K562, 48 h; for CC50: read-out: LC50; for TGI: K-562, leukemia, mutant p53, 48 h
[2] = system: p21^Waf1/p21^Cip1, cyclin D1, Bax; assay: Expression of p53-regulated protein factors in cancer cells (data not shown); type: cell-based; details: mCRPC cells, multiple myeloma U266 cells, plasmacytoma RPMI-8226 cells
[3] = Cytotoxicity (CellTiter 96 AQueous One, MTS); type: cell-based; details: human; PBM cells
Experimental: (§2) The cytotoxicity and human immunodeficiency virus type 1 (HIV-1) strain LAI replication assays were performed in freshly explanted primary human peripheral blood mononuclear cells (PBM cells) according to published procedures. The assays were conducted at least in triplicate and treated statistically (if possible). HIV-1LAI (= HIV-1BRU = LAV-1) was assayed in primary human peripheral blood lymphocyte (PBL) cells in the presence of a drug being evaluated. The parameter for antiviral activity was a reduction in reverse transcriptase (RT) activity in the cell supernatant after Triton X–100-mediated lysis of released virions, as measured using [5α-^3H]dTTP (5α-tritiated thymidine 5′-triphosphate) incorporation into poly(rA)•poly(dT) directed by the primed RNA template poly(rA)•oligo(dT). […] Cytotoxicity on PBL and the other cells (CCRF−CEM, Vero) exerted by the test compounds was determined as described by Stuyver et al. by application of the CellTiter 96® AQueous One Solution Cell Proliferation Assay (Promega Corp., Madison, WI, USA). Briefly, the phenazine ethosulfate (PES)-coupled reduction of the tetrazolium salt 3-(4,5-dimethylthiazol-2-yl)-5-(3-carboxymethoxyphenyl)-2-(4-sulfophenyl)-2H-tetrazolium (MTS) to a purple, water-soluble formazan by living, undamaged cells was measured.

HIV-1LAI = HIV-1LAI replication reverse transcriptase assay in primary PBM cells; type: cell-based, human immunodeficiency virus type 1
Experimental: as §1

[4] = Cytotoxicity (CellTiter 96 AQueous One, MTS); type: cell-based, African green monkey (grivet) Chlorocebus aethiops; details: African green monkey (Chlorocebus aethiops), Vero cells
Experimental: as §2

SR = details: for GI50 / CC50: Homo sapiens, 48 h; for CC50: read-out: LC50; for TGI: leukemia, wild-type p53, 48 h
U251 = details: for GI50 / CC50: Homo sapiens, U-251, 48 h; for CC50: read-out: LC50; for TGI: U251, CNS cancer (brain tumor), mutant p53, 48 h

COc1cc2c(c(OC)c1OC)-c1ccc(NNC(=S)N(Cc3cccc(C[N+](Cc4cccc(CNC56CC7CC(CC(C7)C5)C6)c4)(Cc4cccc(CNC56CC7CC(CC(C7)C5)C6)c4)Cc4cccc(CN(C(=S)NNc5ccc6c(cc5=O)C(NC(C)=O)CCc5cc(OC)c(OC)c(OC)c5-6)C56CC7CC(CC(C7)C5)C6)c4)c3)C34CC5CC(CC(C5)C3)C4)c(=O)cc1C(NC(C)=O)CC2 [Compound 3, [(bis{3-[(tricyclo[3.3.1.1^3,7]decan-1-ylamino)methyl]benzyl}ammonio)bis(methanediylbenzene-3,1-diylmethanediyl)]di-2-[(aS,7S)-7-(acetylamino)-1,2,3-trimethoxy-9-oxo-5,6,7,9-tetrahydrobenzo[a]heptalen-10-yl]-N-(tricyclo[3.3.1.1^3,7]decan-1-yl)hydrazinecarbothioamide chloride pentahydrate]
TGI (HOP-92): 4080 nM | TGI (BT-549): 5890 nM | TGI (EKVX): 8460 nM | TGI (SNB-75): 6680 nM

c1cc(CNC23CC4CC(CC(C4)C2)C3)cc(C[N+](Cc2cccc(CNC34CC5CC(CC(C5)C3)C4)c2)(Cc2cccc(CNC34CC5CC(CC(C5)C3)C4)c2)Cc2cccc(CNC34CC5CC(CC(C5)C3)C4)c2)c1 (centres unmarked) [Compound 1, tetrakis{3-[(tricyclo[3.3.1.1^3,7]decan-1-ammonio)methyl]benzyl}ammonium pentachloride]
CC50 [1]: < 1000 nM | inhibition at 1 µM (CCRF−CEM cells): 60% | GI50 (K-562): 1460 nM | CC50 (K-562): > 50000 nM | TGI (K-562): 36200 nM | TGI (HOP-92): 3060 nM | GI50 (HOP-92; Homo sapiens): 1140 nM | CC50 (HOP-92; Homo sapiens, read-out: LC50 (the source's name)): 12600 nM | cyclin D1 protein factor [2]: downregulated | expression of cyclin-dependent kinase inhibitor p21^Waf1/p21^Cip1 [2]: induced the expression | pro-apoptotic factor Bax expression [2]: increased | TGI (BT-549): 2770 nM | GI50 (BT-549): 1020 nM | CC50 (BT-549): 10200 nM | CC50 [3]: 2200 nM | EC50 (HIV-1LAI; Human immunodeficiency virus 1, PBMC, primary human PBM cells, reverse transcriptase activity in supernatant, read-out: Anti-HIV-1LAI activity EC50): 560 nM | EC90 (HIV-1LAI; Human immunodeficiency virus 1, PBMC, primary human PBM cells, reverse transcriptase activity in supernatant, read-out: Anti-HIV-1LAI activity EC90): 4300 nM | SI50, selectivity index CC50/EC50 (HIV-1LAI; PBM cells): 3.9 | TGI (HL-60 (TB); HL-60 (TB), leukemia, mutant p53, 48 h): 2710 nM | GI50 (HL-60 (TB); Homo sapiens, HL-60, 48 h): 870 nM | CC50 [4]: 1800 nM | GI50 (SR): 1490 nM | CC50 (SR): > 50000 nM | TGI (SR): > 50000 nM | GI50 (SNB-75): 2340 nM | CC50 (SNB-75): 27900 nM | TGI (SNB-75): 9730 nM | GI50 (U251): 1120 nM | CC50 (U251): 8790 nM | TGI (U251): 2690 nM

COc1cc2c(c(OC)c1OC)-c1ccc(NNC(N)=S)c(=O)cc1C(NC(C)=O)CC2 [Compound 2, N-[(aS,7S)-10-(2-carbamothioylhydrazinyl)-1,2,3-trimethoxy-9-oxo-5,6,7,9-tetrahydrobenzo[a]heptalen-7-yl]acetamide monohydrate × ⅔ (ethyl acetate)]
GI50 (K-562): 362 nM | CC50 (K-562): > 100000 nM | TGI (K-562): > 100000 nM | TGI (BT-549): 924 nM | GI50 (BT-549): 294 nM | CC50 (BT-549): > 100000 nM | TGI (EKVX): > 100000 nM | GI50 (SR): 279 nM | CC50 (SR): > 100000 nM | TGI (SR): > 100000 nM | GI50 (SNB-75): 441 nM | CC50 (SNB-75): > 100000 nM | TGI (SNB-75): > 100000 nM | GI50 (U251): 479 nM | CC50 (U251): > 100000 nM | TGI (U251): > 100000 nM
